These are literature values, as cited in article PMC9409351, “Differential Ganglioside and Cholesterol Depletion by Various Cyclodextrin Derivatives and Their Effect on Synaptosomal Glutamate Release” (International Journal of Molecular Sciences, 2022).

One series has as its system cerebellar granule cells. Set-up: method as in PMID 12897192. As to conditions: in addition to cholesterol extraction; cited from earlier work.
The test system of series [1] is cell model of GM1 gangliosidosis. Set-up: method as in doi:10.1007/s10847-018-0835-8. To be noted: immunofluorescence staining; cited from earlier work.

Regarding methylated beta-cyclodextrins [MBCD], the “Sphingomyelin and GSL levels after treatment” value in the series on cerebellar granule cells was “reduction in the sphingomyelin and GSL levels”.

For the compound `COCC1OC2OC3C(COC)OC(OC4C(COC)OC(OC5C(COC)OC(OC6C(COC)OC(OC7C(COC)OC(OC1C(O)C2OC)C(OC)C7O)C(OC)C6O)C(OC)C5O)C(OC)C4O)C(OC)C3O` (stereo not drawn) [DIMEA, hexakis(2,6-di-O-methyl)-alpha-cyclodextrin], the “Lysosomal accumulation of GM1” value in series [1] is “reduced lysosomal accumulation of GM1”.
